# Assay results: ChEMBL document CHEMBL3727348, “3-(aryl or heteroaryl) methyleneindolin-2-one derivatives as inhibitors of cancer stem cell pathway kinases for the treatment of cancer” (2014)
# pIC50: −log10 of the molar value.
# Key:
# Type in all cases: functional, cell-based
# FaDu [1] = assay: Cytotoxic activity against human FADU cancer stem cells incubated for 72 hrs by Cell-titer-Glo luminescence assay
# A549 [2] = assay: Cytotoxic activity against human A549 bulk cells incubated for 72 hrs by Cell-titer-Glo luminescence assay; conditions: A549, 72 h
# A549 [3] = assay: Cytotoxic activity against human A549 cancer stem cells incubated for 72 hrs by Cell-titer-Glo luminescence assay; conditions: A549, 72 h
# ACHN [4] = assay: Cytotoxic activity against human ACHN bulk cells incubated for 72 hrs by Cell-titer-Glo luminescence assay
# FaDu [5] = assay: Cytotoxic activity against human FADU bulk cells incubated for 72 hrs by Cell-titer-Glo luminescence assay
# ACHN [6] = assay: Cytotoxic activity against human ACHN cancer stem cells incubated for 72 hrs by Cell-titer-Glo luminescence assay
structure (smiles),measurement,setting,value
Cc1[nH]c(/C=C2\C(=O)Nc3ccc(-c4cnn(-c5ccccc5)c4)cc32)c(C)c1C(=O)N1CCN(C)CC1,pIC50,FaDu [1],6.51
same,pIC50,A549 [2],5.16
same,pIC50,A549 [3],5.35
same,pIC50,ACHN [4],5.47
same,pIC50,FaDu [5],5.44
CCN(CC)CCNC(=O)c1c(C)[nH]c(/C=C2\C(=O)Nc3ccc(C4CCN(c5ccccc5)CC4)cc32)c1C,pIC50,FaDu [1],5.89
same,pIC50,A549 [2],4.80
same,pIC50,FaDu [5],5.72
O=C1Nc2ccc(-c3csc(-c4ccncc4)n3)cc2/C1=C/c1ccc(N2CCNCC2)cc1,pIC50,A549 [2],5.06
same,pIC50,FaDu [5],4.60
Cc1ccc(-c2nc(-c3ccc4c(c3)/C(=C/c3[nH]c(C)c(C(=O)N5CCN(C)CC5)c3C)C(=O)N4)cs2)cc1,pIC50,FaDu [1],5.70
same,pIC50,A549 [2],5.07
same,pIC50,A549 [3],6.35
same,pIC50,ACHN [4],5.37
same,pIC50,FaDu [5],5.10
Cc1cc(C)c(/C=C2\C(=O)Nc3ccc(-c4ncccn4)cc32)[nH]1,pIC50,FaDu [1],4.60
same,pIC50,A549 [3],4.54
same,pIC50,ACHN [4],4.60
same,pIC50,FaDu [5],4.58
Cc1cc(C)c(/C=C2\C(=O)Nc3ccc(-c4nccc5ccccc45)cc32)[nH]1,pIC50,A549 [2],4.74
same,pIC50,FaDu [5],4.63
CCN(CC)CCNC(=O)c1c(C)[nH]c(/C=C2\C(=O)Nc3ccc(-c4csc(C5CCNC5)n4)cc32)c1C (stereo not given),pIC50,A549 [2],6.14
same,pIC50,A549 [3],4.49
same,pIC50,ACHN [4],5.17
same,pIC50,FaDu [5],5.62
Cc1cc(C)c(/C=C2\C(=O)Nc3ccc(-c4cccc5ncccc45)cc32)[nH]1,pIC50,FaDu [1],4.88
same,pIC50,A549 [2],4.96
same,pIC50,A549 [3],4.40
same,pIC50,ACHN [4],4.88
same,pIC50,FaDu [5],4.87
Cc1cc(C)c(/C=C2\C(=O)Nc3ccc(-c4csc(-n5cccn5)n4)cc32)[nH]1,pIC50,FaDu [1],4.57
same,pIC50,A549 [2],5.01
same,pIC50,A549 [3],4.79
same,pIC50,ACHN [4],5.05
same,pIC50,FaDu [5],4.68
CCN(CC)CCNC(=O)c1c(C)[nH]c(/C=C2\C(=O)Nc3ccc(-n4cc(-c5ccccc5)nn4)cc32)c1C,pIC50,FaDu [1],5.52
same,pIC50,ACHN [4],5.15
same,pIC50,FaDu [5],5.18
CCN(CC)CCNC(=O)c1c(C)[nH]c(/C=C2\C(=O)Nc3ccc(-c4cnc(SC)cn4)cc32)c1C,pIC50,A549 [2],5.22
same,pIC50,A549 [3],4.52
same,pIC50,ACHN [4],4.91
same,pIC50,FaDu [5],5.22
O=C1Nc2ccc(-c3csc(-c4ccncc4)n3)cc2/C1=C/c1cc2c([nH]1)CCCC2,pIC50,A549 [3],6.10
same,pIC50,ACHN [4],4.42
CCN(CC)CCNC(=O)c1c(C)[nH]c(/C=C2\C(=O)Nc3ccc(-c4csc(-c5ccc(CCC(=O)O)cc5)n4)cc32)c1C,pIC50,FaDu [1],5.31
same,pIC50,A549 [3],5.38
Cc1cc(C)c(/C=C2\C(=O)Nc3ccc(-c4cnsc4)cc32)[nH]1,pIC50,FaDu [1],4.36
same,pIC50,ACHN [4],4.37
same,pIC50,FaDu [5],4.57
same,pIC50,ACHN [6],4.77
Cc1[nH]c(/C=C2\C(=O)Nc3ccc(-c4cnn(-c5ccccn5)c4)cc32)c(C)c1C(=O)N1CCN(C)CC1,pIC50,FaDu [1],6.62
same,pIC50,A549 [2],4.72
same,pIC50,A549 [3],4.93
same,pIC50,FaDu [5],5.44
CCN(CC)CCN1CCCc2[nH]c(/C=C3\C(=O)Nc4ccc(-c5csc(-c6ccccc6)n5)cc43)c(C)c2C1=O,pIC50,A549 [2],4.74
same,pIC50,FaDu [5],5.27
Cc1cc(C)c(/C=C2\C(=O)Nc3ccc(-c4ccncc4)cc32)[nH]1,pIC50,ACHN [6],5.16
O=C1Nc2ccc(-c3csc(-c4ccccc4)n3)cc2/C1=C/c1ccc(N2CCNCC2)cc1,pIC50,A549 [2],5.24
same,pIC50,FaDu [5],5.59
CCN(CC)CCNC(=O)c1c(C)[nH]c(/C=C2\C(=O)Nc3ccc(-c4csc(-c5cccc(CCC(=O)O)c5)n4)cc32)c1C,pIC50,FaDu [1],5.31
same,pIC50,A549 [3],5.38
same,pIC50,ACHN [4],5.90
same,pIC50,FaDu [5],5.75
Cc1cc(C)c(/C=C2\C(=O)Nc3ccc(-c4ncccc4C)cc32)[nH]1,pIC50,FaDu [1],4.39
same,pIC50,A549 [2],4.65
same,pIC50,ACHN [4],5.10
same,pIC50,ACHN [6],8.00
CCN(CC)CCNC(=O)c1ccc(/C=C2\C(=O)Nc3ccc(-c4csc(-c5ccccc5)n4)cc32)[nH]c1=O,pIC50,FaDu [1],5.21
same,pIC50,A549 [2],5.44
same,pIC50,ACHN [4],5.48
same,pIC50,FaDu [5],5.51
CCN(CC)CCNC(=O)c1c(C)[nH]c(/C=C2\C(=O)Nc3ccc(C4CCN(C5CCN(C(C)=O)CC5)CC4)cc32)c1C,pIC50,FaDu [1],6.00
same,pIC50,A549 [2],4.53
same,pIC50,ACHN [4],5.32
same,pIC50,FaDu [5],5.48
CCN(CC)CCNC(=O)c1c(C)[nH]c(/C=C2\C(=O)Nc3ccc(-c4cnc(-c5ccccc5)cn4)cc32)c1C,pIC50,FaDu [1],4.41
same,pIC50,A549 [2],4.77
same,pIC50,A549 [3],4.36
same,pIC50,ACHN [4],4.59
same,pIC50,FaDu [5],4.76
Cc1ccc(-c2ccc3c(c2)/C(=C/c2[nH]c(C)cc2C)C(=O)N3)nc1,pIC50,FaDu [5],4.43
same,pIC50,ACHN [6],7.30
Cc1cc(C)c(/C=C2\C(=O)Nc3ccc(-c4nc5ccccc5s4)cc32)[nH]1,pIC50,A549 [2],4.79
same,pIC50,ACHN [4],4.83
same,pIC50,FaDu [5],4.57
Cc1[nH]c(/C=C2\C(=O)Nc3ccc(-c4csc(-c5ccccc5)n4)cc32)c(C)c1CCC(=O)O,pIC50,A549 [3],5.78
O=C1Nc2ccc(-c3csc(-c4ccccc4)n3)cc2/C1=C/c1cnc[nH]1,pIC50,FaDu [1],5.20
same,pIC50,A549 [2],4.95
same,pIC50,A549 [3],6.05
same,pIC50,ACHN [4],5.06
same,pIC50,FaDu [5],5.21
O=C1Nc2ccc(-c3csc(-c4ccccc4)n3)cc2/C1=C/c1[nH]cc2ccccc12,pIC50,FaDu [1],5.30
same,pIC50,ACHN [6],5.39
CCOC(=O)c1cc(C)c(/C=C2\C(=O)Nc3ccc(-c4csc(-c5ccccc5)n4)cc32)[nH]1,pIC50,A549 [2],4.40
same,pIC50,A549 [3],4.88
same,pIC50,ACHN [4],6.41
same,pIC50,FaDu [5],4.87
Cc1cc(C)c(/C=C2\C(=O)Nc3ccc(-c4cc(-c5ccccc5)ccn4)cc32)[nH]1,pIC50,A549 [2],4.86
same,pIC50,A549 [3],4.45
same,pIC50,FaDu [5],4.65
COc1ccc(-c2ccc3c(c2)/C(=C/c2[nH]c(C)cc2C)C(=O)N3)nc1,pIC50,A549 [2],7.15
CCN(CC)CCNC(=O)c1c(C)[nH]c(/C=C2\C(=O)Nc3ccc(-c4cn(-c5ccccc5)nn4)cc32)c1C,pIC50,FaDu [1],5.54
same,pIC50,A549 [2],5.31
same,pIC50,ACHN [4],5.33
same,pIC50,FaDu [5],5.17
Cc1cc(C)c(/C=C2\C(=O)Nc3ccc(-c4cnc(-c5ccccc5)cn4)cc32)[nH]1,pIC50,ACHN [6],5.17
CCOC(=O)c1[nH]c(/C=C2\C(=O)Nc3ccc(-c4csc(-c5ccccc5)n4)cc32)c2c1CCCC2,pIC50,FaDu [1],5.54
same,pIC50,ACHN [4],6.08
same,pIC50,ACHN [6],5.80
Cc1cc(C)c(/C=C2\C(=O)Nc3ccc(-c4csc(-c5ccccc5)n4)cc32)[nH]1,pIC50,FaDu [1],5.19
same,pIC50,ACHN [4],5.27
same,pIC50,FaDu [5],5.10
Cc1cc(C)c(/C=C2\C(=O)Nc3ccc(-c4cnc5cccnn45)cc32)[nH]1,pIC50,FaDu [1],5.81
same,pIC50,A549 [2],4.90
same,pIC50,A549 [3],5.06
same,pIC50,FaDu [5],5.28
Cc1cc(C)c(/C=C2\C(=O)Nc3ccc(-c4ccccn4)cc32)[nH]1,pIC50,ACHN [6],7.70
Cc1cc(C)c(/C=C2\C(=O)Nc3ccc(-c4cnc5ccccc5n4)cc32)[nH]1,pIC50,FaDu [1],7.05
same,pIC50,A549 [2],5.10
same,pIC50,ACHN [4],4.98
same,pIC50,FaDu [5],4.59
CCN(CC)CCN1CCCc2[nH]c(/C=C3\C(=O)Nc4ccc(-c5csc(C6CCNCC6)n5)cc43)c(C)c2C1=O,pIC50,A549 [2],5.15
same,pIC50,FaDu [5],5.06
same,pIC50,ACHN [6],4.93
Cc1cc(C)c(/C=C2\C(=O)Nc3ccc(-c4cncnc4)cc32)[nH]1,pIC50,A549 [2],4.68
same,pIC50,ACHN [4],4.89
Cc1cc(C)c(/C=C2\C(=O)Nc3ccc(-c4cnc5ccccn45)cc32)[nH]1,pIC50,FaDu [1],4.77
same,pIC50,A549 [2],4.78
same,pIC50,A549 [3],4.69
same,pIC50,ACHN [4],4.60
same,pIC50,FaDu [5],4.94
CCN(CC)CCNC(=O)c1c(C)[nH]c(/C=C2\C(=O)Nc3ccc(-c4nnc(-c5ccccc5)s4)cc32)c1C,pIC50,FaDu [1],6.64
same,pIC50,A549 [2],4.31
same,pIC50,FaDu [5],5.67
Cc1ccc(-c2ccc3c(c2)/C(=C/c2[nH]c(C)cc2C)C(=O)N3)cn1,pIC50,A549 [2],4.59
same,pIC50,ACHN [4],4.60
same,pIC50,ACHN [6],8.00
COC(=O)c1c(C)[nH]c(/C=C2\C(=O)Nc3ccc(-c4csc(-c5ccccc5)n4)cc32)c1C,pIC50,A549 [2],4.79
same,pIC50,ACHN [4],5.94
same,pIC50,FaDu [5],4.66
CSc1cnc(-c2ccc3c(c2)/C(=C/c2[nH]c(C)cc2C)C(=O)N3)cn1,pIC50,A549 [2],4.45
same,pIC50,ACHN [4],6.80
same,pIC50,ACHN [6],4.74
Cc1cc(C)c(/C=C2\C(=O)Nc3cc(-c4ccncc4)ccc32)[nH]1,pIC50,A549 [3],6.01
same,pIC50,FaDu [5],4.73
